This is an account of results in patent US8822674B2, “Crystal form of 4-isopropylphenyl glucitol compound and process for production thereof” (Taisho Pharmaceutical Co., Ltd, priority 2010, dated 2014).

Data set [1] can be described thus: Renal concentrations until one week after single oral administration. The class given is in vivo. Particulars: Sprague-Dawley (SD/IGS), rat, 1 mg/kg po, male Sprague-Dawley rats, kidney. The procedure: SD/IGS rats at 7 weeks of age (male, non-fasting, Charles River Laboratories Japan Inc.) were orally administered with compound 4, 10 or 33 (1 mg/kg each) or compound 11 (0.3 mg/kg) prepared in a 0.5% aqueous CMC solution. At 24, 72 and 168 hours after drug administration, the rats were exsanguinated via the postcaval vein under ether anesthesia, and their kidneys were excised after they were confirmed to be euthanized. After the tissue surface was washed with physiological saline, each tissue was measured for its weight and homogenized in 4 volumes of purified water under ice cooling. To each homogenate, an acetonitrile/methanol solution containing an internal standard substance was added to remove proteins, and the supernatant was then subjected to LC-MS/MS (Applied Biosystems API3000). Drug-derived ions generated by electrospray ionization in positive ion mode were detected by selective reaction monitoring. The peak area of the resulting extracted ion chromatogram was analyzed by the internal standard method to calculate the drug concentration in the homogenate.
As the internal standard material for Compounds 10 and 33, (1S)-1,5-anhydro-1-[5-(4-ethoxybenzyl)-2-methoxy-4-methylphenyl]-1-thio-D-glucitol,ethyl-D5 was used. As the internal standard materials for Compounds 4 and 11, Compound II and deuterium-labeled Compound II (trishydroxymethyl-D6; —C(CD2OH)3), respectively, were used.

The target of data set [2] is T1, human SGLT1 (Homo sapiens, UniProt P13866).
T1 construct: expressed in transfected cells; host or cells: CHO-K1
T1 sequence (P13866 1-664): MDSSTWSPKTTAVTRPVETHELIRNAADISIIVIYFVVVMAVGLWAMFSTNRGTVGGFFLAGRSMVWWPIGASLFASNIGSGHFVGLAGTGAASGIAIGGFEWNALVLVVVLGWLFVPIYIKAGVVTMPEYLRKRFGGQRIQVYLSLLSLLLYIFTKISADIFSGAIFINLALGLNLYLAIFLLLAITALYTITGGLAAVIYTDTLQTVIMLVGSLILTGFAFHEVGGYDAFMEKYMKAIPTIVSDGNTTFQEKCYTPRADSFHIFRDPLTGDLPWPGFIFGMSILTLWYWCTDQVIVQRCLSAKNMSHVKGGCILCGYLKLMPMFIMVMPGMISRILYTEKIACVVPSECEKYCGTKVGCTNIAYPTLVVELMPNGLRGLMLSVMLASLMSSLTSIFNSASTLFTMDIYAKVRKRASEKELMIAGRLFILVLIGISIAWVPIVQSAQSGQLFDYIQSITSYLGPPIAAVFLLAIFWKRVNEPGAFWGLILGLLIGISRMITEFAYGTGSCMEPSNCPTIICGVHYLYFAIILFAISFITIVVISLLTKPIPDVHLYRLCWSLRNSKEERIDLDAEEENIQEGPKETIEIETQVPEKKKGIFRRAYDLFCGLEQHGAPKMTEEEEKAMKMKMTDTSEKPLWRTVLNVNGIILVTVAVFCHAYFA
Briefly: Inhibition test for sodium-dependent sugar uptake in CHO-K1 cells stably expressing human SGLT1. The class given is cell-based. The following applies: summary of Table 1. The procedure:
A plasmid vector expressing human SGLT1 protein was transfected into CHO-K1 cells using lipofectamine 2000 (Invitrogen). The cells were cultured in the presence of 500 μg/mL geneticin to select resistant strains, followed by screening in the system shown below using sugar uptake capacity as an indicator to obtain SGLT1-expressing cells.
(§1) The stably expressing cells prepared above were used in the following test.
Pretreatment buffer (140 mM choline chloride, 2 mM KCl, 1 mM CaCl2, 1 mM MgCl2, 10 mM HEPES/5 mM Tris, pH 7.4) was added in a volume of 200 μL to the cells stably expressing SGLT1 or 2 mL for Method A and 200 μL for Method B to the cells stably expressing SGLT2, followed by incubation for 20 minutes. The pretreatment buffer was removed and replaced by uptake buffer containing a test compound (1 mM methyl α-D-glucopyranoside (containing [^14C]methyl α-D-glucopyranoside), 140 mM NaCl, 2 mM KCl, 1 mM CaCl2, 1 mM MgCl2, 10 mM HEPES/5 mM Tris, pH 7.4) in a volume of 75 μL for SGLT1 and SGLT2 in Method B or 200 μL for SGLT2 in Method A. Uptake reaction was performed at 37° C. for 30 minutes (SGLT1) or 60 minutes (SGLT2). […] A liquid scintillator (Perkin Elmer) was added and mixed well with each sample, followed by measurement of radioactivity using a β-ray analyzer. […]

In data set [3] the target is T2, human SGLT2 protein modified to have LeuGluSerArgGlyProVal added to the carboxy-terminal final residue (Homo sapiens, UniProt P31639).
T2 construct: expressed in transfected cells; host or cells: CHO-K1
T2 sequence (P31639 with tags, fused parts or gaps): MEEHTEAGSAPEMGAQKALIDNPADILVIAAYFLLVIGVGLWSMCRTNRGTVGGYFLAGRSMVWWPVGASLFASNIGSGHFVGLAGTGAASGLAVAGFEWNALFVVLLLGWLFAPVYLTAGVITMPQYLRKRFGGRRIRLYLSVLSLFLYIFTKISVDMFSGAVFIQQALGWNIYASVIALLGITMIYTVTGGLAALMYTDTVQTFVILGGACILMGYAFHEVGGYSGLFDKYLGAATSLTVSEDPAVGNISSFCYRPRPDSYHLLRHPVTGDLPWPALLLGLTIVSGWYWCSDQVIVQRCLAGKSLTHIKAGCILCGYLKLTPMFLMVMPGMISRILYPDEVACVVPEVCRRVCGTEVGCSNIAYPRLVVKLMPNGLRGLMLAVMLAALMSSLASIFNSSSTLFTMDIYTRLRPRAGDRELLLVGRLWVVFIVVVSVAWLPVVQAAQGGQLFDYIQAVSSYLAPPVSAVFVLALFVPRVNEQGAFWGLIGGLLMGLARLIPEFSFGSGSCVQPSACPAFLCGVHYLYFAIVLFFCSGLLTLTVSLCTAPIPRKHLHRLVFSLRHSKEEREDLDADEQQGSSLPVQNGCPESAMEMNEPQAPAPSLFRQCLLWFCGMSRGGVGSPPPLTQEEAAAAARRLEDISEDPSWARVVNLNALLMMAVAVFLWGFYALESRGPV
Briefly: Inhibition test for sodium-dependent sugar uptake in CHO-K1 cells stably expressing human SGLT2, Method A. Particulars: summary of Table 1; method not specified. The class given is cell-based. How it is done: Method A (described in WO2007/136116): A plasmid vector expressing human SGLT2 protein modified to have LeuGluSerArgGlyProVal added to the carboxy-terminal final residue was transfected into CHO-K1 cells using lipofectamine 2000 (Invitrogen). The cells were cultured in the presence of 500 μg/mL hygromycin B to select resistant strains, followed by screening in the system shown below using sugar uptake capacity as an indicator to obtain SGLT2-expressing cells.
as §1
Pretreatment buffer (140 mM choline chloride, 2 mM KCl, 1 mM CaCl2, 1 mM MgCl2, 10 mM HEPES/5 mM Tris, pH 7.4) was added in a volume of 200 μL to the cells stably expressing SGLT1 or 2 mL for Method A and 200 μL for Method B to the cells stably expressing SGLT2, followed by incubation for 20 minutes. […] A liquid scintillator (Perkin Elmer) was added and mixed well with each sample, followed by measurement of radioactivity using a β-ray analyzer. […]

Data set [4] concerns streptozotocin (STZ)-induced diabetic rats. Briefly: Oral glucose tolerance test in streptozotocin diabetic model rats. It is filed as in vivo, rat. How it is done: SD/IGS rats at 7 weeks of age (male, Charles River Laboratories Japan Inc.) were fasted for about 16 hours and then injected with 50 mg/kg streptozotocin (STZ) via the caudal vein under ether anesthesia to prepare diabetic model rats. Similarly, another group of SD/IGS rats at 7 weeks of age was injected with 1.25 mmol/L citric acid in physiological saline (1 mL/kg) via the tail vein under ether anesthesia to prepare normal control rats. At one week after injection of STZ or 1.25 mmol/L citric acid in physiological saline, the rats (8 weeks old) were provided for an oral glucose tolerance test. […]
Blood was collected from the caudal veins of the rats under ether anesthesia with the use of a heparin-coated blood collecting tube and centrifuged, whereafter blood plasma was separated. Plasma glucose concentrations were quantified by measurement with a Glucose CII-Test Wako (Wako Pure Chemical Industries, Ltd., Japan). To determine the intensity of hypoglycemic effect, the blood glucose level before drug administration was subtracted from each blood glucose level measured until one hour after oral administration in each drug group, and the resulting values were analyzed by the trapezoidal method to calculate an increment in the area under the curve for glucose (ΔAUC), which was expressed as a decrease relative to ΔAUC of the control group.

Data set [5] is described as follows: Renal concentration after repeated oral administration for 3 days. It is filed as in vivo, rat. The following applies: 3 mg/kg for 3 consecutive days, subsequent day 2. The procedure:
At 48 hours after the final drug administration, the rats were exsanguinated via the postcaval vein under isoflurane anesthesia, and their kidneys were excised after they were confirmed to be euthanized. After the tissue surface was washed with physiological saline, each tissue was measured for its weight and homogenized in 4 volumes of purified water under ice cooling. The drug concentration in each homogenate was determined in the same manner as shown in Test Example 3(1) by LC-MS/MS using compound II as an internal standard substance.

Each structure is given as a SMILES string.

As for `Cc1cc(O)c([C@@H]2O[C@H](CO)[C@@H](O)[C@H](O)[C@H]2O)cc1Cc1ccc(CCCC(=O)NC(C)(C)C(N)=O)cc1` [compound 4], the concentration at 1 day in data set [1] (1 day, read-out: Concentration of compounds in kidney after single oral administration, After 1 day) stood at 68.4 ± 7.49 ng/g. Moreover, in data set [1] (3 days, read-out: Concentration of compounds in kidney after single oral administration, After 3 days), the concentration at 3 days was 85.5 ± 23.1 ng/g. For the same molecule, the concentration at 7 days in data set [1] (7 days, read-out: Concentration of compounds in kidney after single oral administration, After 7 days) was found to be 76.3 ± 15.5 ng/g.
For the molecule `COc1cc(C(C)C)c(Cc2ccc(/C=C/C(C)(C)C(=O)NC(C)(C)C(=O)NCCN(C)C)cc2)cc1[C@@H]1O[C@H](CO)[C@@H](O)[C@H](O)[C@H]1O` [compound (A), (1S)-1,5-anhydro-1-[5-(4-{(1E)-4-[(1-{[2-(dimethylamino)ethyl]amino}-2-methyl-1-oxopropan-2-yl)amino]-3,3-dimethyl-4-oxobut-1-en-1-yl}benzyl)-2-methoxy-4-(propan-2-yl)phenyl]-D-glucitol], the “SGLT1 inhibiting activity (in words)” value in data set [2] is “strong”. Further, the “SGLT2 inhibiting activity (in words)” value in data set [3] is “some, although weak”. Moreover, in data set [4] (STZ-induced diabetic rats, oral dose 1 mg/kg, glucose 2 g/kg, versus vehicle control), the “STZ rats OGTT % inhibition ΔAUC0−1 h (mg/dl) @1 mg/kg/po” value is reported as 65%. Besides, the “hypoglycemic action in the glucose tolerance test (in words)” value in data set [4] (oral administration of 1 mg/kg) is “potent”. Also, in data set [5], the “remaining in the kidney after repeated administration (in words)” value is reported as “did not remain in the kidney”.
